This is an account of results in PMC6222558, “Synthesis and Evolution of Berberine Derivatives as a New Class of Antiviral Agents against Enterovirus 71 through the MEK/ERK Pathway and Autophagy” (Molecules : A Journal of Synthetic Chemistry and Natural …, 2018).

One data set deals with Vero cells. Nature of the data set: Cytotoxicity assay (CCK) in Vero cells. The format is cell-based, African green monkey. A digest of the protocol: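 Vero cells seeded at 3 × 10^4 cells/well were exposed overnight-plated to a range of compound concentrations in duplicate for 48 h. Viability was measured by CCK at 450 nm. TC50 is the concentration giving 50% growth inhibition versus controls, calculated by the Reed and Muench method.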

Data set [1] concerns EV71 H strain (VR-1432, genotype C2). The experiment in a line: CPE inhibition assay for anti-EV71, H strain. The format is cell-based, enterovirus 71 (EV71). The settings on record: Enterovirus A, EV71; Vero cells; CPE; calculated on the organic part; n = 3; read-out: H Strain IC50. An outline of the steps: (§1)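 Vero cells infected with 100 × TCID50 EV71 for 1 h at 37 °C in serum-free medium, unbound virus removed, then compounds added for 72 h. IC50 from inhibition of virus-induced CPE; TC50 as concentration giving 50% CPE at 72 h, with selectivity index; crystal violet staining for imaging.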

Data set [2] relates to EV71 JS-52 strain (genotype C4). The experiment in a line: CPE inhibition assay for anti-EV71, JS-52 strain. Type of data set: cell-based, enterovirus 71 (EV71). As to conditions: Enterovirus A, EV71; Vero cells; CPE; calculated on the organic part; n = 3; read-out: JS-52 Strain IC50. A digest of the protocol:
as §1

Data set [3] deals with EV71 BrCr strain (VR-1775, genotype A). Nature of the data set: CPE inhibition assay for anti-EV71, BrCr strain. Type of data set: cell-based, enterovirus 71 (EV71). The settings on record: Enterovirus A, EV71; Vero cells; CPE; calculated on the organic part; n = 3; read-out: BrCr Strain IC50. A digest of the protocol: as §1
In data set [4] the test system is four different genotype enterovirus 71 (EV71) strains. Nature of the data set: CPE assay, summary over the four EV71 strains. The format is cell-based. As to conditions: Enterovirus A, EV71, read-out: IC50 values against all tested EV71 strains. On the procedure:
Thus, all newly synthesized BBR analogues were screened for their anti-EV71 potencies in African green monkey kidney (Vero) cells taking BBR as the positive control. EV71 strains used in the present study include different genotype strains, such as H strain (VR-1432, genotype C2), BrCr strain (VR-1775, genotype A), and JS-52 and SHZH98 (genotype C4). The potency against EV71 strains above mentioned of each tested compound was evaluated by the combination of its IC50 and selectivity index (SI) value as the important therapeutic indication.
(§2) The anti-EV71 activities of all tested compounds were detected by the virus-induced CPE assay. Briefly, cells (3 × 10^4 cells/well) were plated into 96-well culture plates and incubated for 16 h. Then, remove the medium and infected cells with EV71 of 100 × TCID50 (50% tissue culture infective doses) in serum-free medium for 1 h at 37 °C. After that, the unbound viruses were removed and various concentrations of tested compounds were supplemented for incubation of another 72 h. […] TC50 defined as the concentration that leads to the 50% of CPE which determined by the same method in 72 h. In addition, the cells were stained the cells were colored with 0.5% crystal violet in 20% ethanol for 15 min at room temperature and the cells were imaged after rinsed with PBS.

For another data set, the system named is EV71-induced CPE. Nature of the data set: CPE assay with microscopy and crystal violet staining. Type of data set: cell-based, enterovirus 71 (EV71). As to conditions: 20 μM; Vero cells; better than that of BBR. As for the experimental part:
Furthermore, microscopy and crystal violet staining was used to further investigation the anti-EV71 effect of 2d with CPE (cytopathic effect) assay.
as §2
Figure 2 The anti-EV71 effect of compound 2d in Vero cells with BBR as a positive control. (A) 2d reduced the EV71-induced CPE. Cells were examined using a microscopy (×40); (B) 2d reduced the EV71-induced CPE. Cells were examined using crystal violet staining; (C) 2d reduced the expression of EV71 VP1 RNA by one-step qRT-PCR assay. ** p < 0.001 * p < 0.05; (D) 2d reduced the expression of EV71 VP1 protein by western blot assay.

Each structure is given as a SMILES string.

By IC50 is commonly meant the concentration at which inhibition is half-maximal.

`COc1ccc2cc3[n+](cc2c1OCC(=O)OCc1ccccc1)CCc1cc2c(cc1-3)OCO2` [2d, 2,3-Methylenedioxy-9-benzyloxyformylmethylenoxy-10-methoxyprotoberberine chloride]: the “cytotoxicity, in words” value in the data set with Vero cells is listed as “lower cytotoxicity”. For the same compound, the “TC50 (median toxic concentration)” value with Vero cells (African green monkey, 48 h) was determined as 82.8 µM. Also, the half-inhibitory concentration (IC50) in data set [1] is 12.4 µM; in data set [2], 7.12 µM; in data set [3], 8.52 µM; in data set [4] it was 7.12 to 14.8 µM. In addition, the “reduction of EV71-induced CPE” value in the data set on EV71-induced CPE is recorded as “significantly reduce the EV71-induced CPE”.
